Measured values published in a melting point compilation (Tetko et al.; mined from patent text by program, amines drawn as free bases though some values may be those of a salt).

Structure (SMILES)	melting point [°C]
CCCCCCCCCCCCSCC(O)CO (configuration not stated)	53 to 54
O=c1nc(-c2ccccn2)sc2ccc(OCc3ccccc3)cc12	198 to 199
Cc1nn(-c2cccnc2)c(-c2cccc(Cl)c2)c1CC(=O)O	163
CC(C)(C)C(=O)OCN1C(=O)NC2(C1=O)C(=O)N(Cc1ccc(Br)cc1F)c1ccccc12 (configuration not stated)	220 to 222
CCN(Cc1ccc2nc(C)[nH]c(=O)c2c1)C(N)=S	186 to 187
Cc1ccc2cccc3c2c1N(Cc1ccccc1)C3=NCCCn1ccnc1	107 to 109
COc1ccc2[nH]c3c(C)cnc(Cl)c3c2c1	243 to 245
Cc1ccc(C)c(C(=O)CC#N)c1	75 to 76
O=S1(=O)NCN(C2CC2)c2cc(Br)c(C(F)(F)F)cc21	186 to 189
CC(=O)c1ccc(N2CCN(C)CC2)cc1	97 to 99
COc1ccc(CCC(=O)NNC(=O)c2ccc3ncsc3c2)cc1C(F)(F)F	208 to 209
CCCCc1cc2cc(O)c(Cl)c(Cl)c2s1	35
O=c1c2cccnc2sc(=Nc2ccc(C(F)(F)F)cc2)n1Cc1ccccc1	126 to 128
Cc1c(Cc2cccc(C(F)(F)F)c2)oc2cccc(-c3cccc(C(=O)O)c3)c12	169 to 170
CC1CCc2c(Cl)c(Cl)cc3c(=O)c(C(=O)O)cn1c23 (configuration not stated)	269 to 271
O=[N+]([O-])c1ccc(Oc2ccccc2Oc2ccc([N+](=O)[O-])c(O)c2)cc1O	178 to 180
COc1nc2nc(S(=O)(=O)Cl)nn2cc1C	154 to 157
CC(=O)C1CCC2C3CCC4=CC(=O)CCC4(C)C3C(Cl)CC12C (configuration not stated)	185 to 188
Nc1nc(Nc2cccnc2)sc1C(=O)c1ccc(Cl)cc1Cl	209 to 210
O=C(O)c1cn(C2CC2)c2c(OC(F)F)c(F)c(F)cc2c1=O	202 to 207

Structure (SMILES)	melting point [°C]
CCOC(=O)c1c(C)n(C)cc(-c2ccc(Cl)cc2)c1=O	200 to 201
O=C(O)c1ccc(NCc2ccc(Cl)cc2)cc1	206 to 208
Cc1noc(-c2cn(-c3cccc(Br)c3)cn2)n1	200 to 202
O=C(NC(CO)C(=O)N1CCN(CCCc2ccccc2)CC1)OCc1ccccc1 (configuration not stated)	95 to 97
O=C(O)C1CCc2c(sc3cc(F)ccc23)C1 (configuration not stated)	195 to 198
O=C1Nc2ccccc2C(c2ccccc2F)CC1Br (configuration not stated)	208 to 214
Cc1nc2c3c(ccc2n1C1CC1)C(=O)[C@H](O)[C@@H](c1ccccc1)O3	178
COc1ccc(-c2ccc(C=O)cc2)cc1OC1CCCC1	86.5 to 87.5
O=C(O)c1ccc(CN2C(=O)C3(COc4cc5c(cc43)OCCO5)c3ccccc32)o1 (configuration not stated)	192 to 195
CCOC(=O)c1cc(=O)c(Oc2ccc(OC)cc2)co1	106 to 107
COc1cccc(-c2c(C(=O)O)c(=O)n(C)c3ncccc23)c1	196 to 197
O=C1OC(=O)c2ccc3c4cccc5cccc(c6ccc1c2c63)c54	> 260
O=C(O)CCCCc1cc2ccccc2n1-c1cccnc1	143 to 144
C#CC(=O)c1cc(C(C)(C)C)c(O)c(C(C)(C)C)c1	100 to 101
COC(=O)c1ccc2c(OC)ccnc2c1	147 to 148
CCOC(=O)C(C)(C(C)=O)c1ccc([N+](=O)[O-])c(NC)c1C#N (configuration not stated)	87 to 91
O=S(=O)(NCCSc1cc(F)c(OCCO)c(F)c1)c1ccc(Cl)cc1	43.5 to 45
C=Cc1c(OC)nc(-c2ccc(Cl)c(OC)c2F)nc1C(=O)OC	107 to 108
c1ccc(-n2c(-c3cccc(OCCN4CCCCC4)c3)nc3ccccc32)cc1	68
N=c1ccccn1CC(O)COc1cccc2ccccc12 (configuration not stated)	138 to 141

Structure (SMILES)	melting point [°C]
COc1ccc2c(c1)c1c(n2C(=O)c2ccccc2)CCCC1C(=O)O (configuration not stated)	157 to 159
CC(C(=O)O)c1ccc(C(=O)c2ccc(Cl)s2)cc1 (configuration not stated)	137
O=C1NC(=S)NC(=O)C1c1ccccc1F	> 240
C=C1C2CCCCC2CC2C(OC)OCC12 (configuration not stated)	53 to 55
CCCCCn1c2ccccc2c2cc(C(=O)N3CCCCC3)ncc21	126 to 127
Cn1ncc2nn(-c3cc(C(F)(F)F)ccc3F)c(=O)c(Cl)c21	177 to 182
CC(=Cc1ccc(-c2ccc(Cl)cc2)cc1)[N+](=O)[O-]	114
COc1nn(-c2ccnc(N[C@H]3CC[C@H](O)CC3)n2)c2ccccc12	202 to 205
CSc1nnc(SC)c2cc(-c3ccccc3)ncc12	155
COc1cc(C)c2cc(C(=O)c3ccc(C(=O)O)cc3)ccc2c1C	240
CC(Cc1cccc(Cl)c1)(NC=O)c1ccccc1 (configuration not stated)	108 to 109
Cc1nn2c(C(F)(F)F)cc(-c3ccc(F)c(Cl)c3)nc2c1C#N	196
CC1CC(NC(=O)c2ccccc2SC#N)CC(C)(C)C1 (configuration not stated)	117
CC(C)(C)OC(=O)N1CCc2c(cccc2C(=O)c2cc(Cl)ccc2N)C1	159 to 160
CCOC(=O)c1[nH]c2cc(Cl)c(Cl)cc2c1-c1ccc(Cl)cc1Cl	160 to 161
CCCCCCc1nc2c(N)nc3ccccc3c2n1CCCCNC(=O)Nc1ccccc1	170 to 172
CCOC(=O)Cc1cccc(OCc2ccc3oc([N+](=O)[O-])c(-c4ccccc4)c3c2)c1	67 to 68
COc1ccc(CNc2cc3c(Nc4ccc(Cl)c(Cl)c4)ncnc3cn2)cc1	209 to 211
NC(=O)C1CNCCN1CCCC(c1ccc(F)cc1)c1ccc(F)cc1 (configuration not stated)	114

Further lines, results first:

melting point [°C]	Structure (SMILES)
118 to 126	CC(C)C[C@H](NC(=O)[C@@H](N)Cc1c[nH]cn1)[C@@H](O)c1nccs1
124 to 129	c1ccc(CN2CCc3c(sc4nc5ccccc5n34)C2)cc1
43 to 45	COc1cc(C(O)CCCCCCCCCCOCc2ccccc2)ccc1OCc1ccccc1 (configuration not stated)
36.4 to 37.6	COCC1(CCCCCCCCCCCCC2(C(=O)O)CC2)CC1
111 to 112	COc1cc2c(cc1OCc1ccccc1)CCN(Cc1cccc(Oc3ccccc3)c1)C2
268 to 270	Cc1cc(C)n(-c2nc(Nc3ccc(N4CCOCC4)cc3)c3ccccc3n2)n1
108 to 110	CC(C)(CCl)C(=O)N(O)Cc1ccccc1Cl
60	O=c1c2ccccc2nnn1CCCN1CCC(c2c[nH]c3ccccc23)CC1
120 to 121	COC(=O)c1c(Oc2ccc(Cl)cc2[N+](=O)[O-])c2ccccc2n1Cc1ccccc1
70 to 72	CC(CNC(=O)[C@@H]1CSC(=O)N1)O[N+](=O)[O-] (some centres not stated)
104 to 108	O=c1cc2c(nn1-c1ccc(Cl)cc1F)CCCC2
160 to 162	COc1ccc(-c2nc3n(c2-c2ccc(OC)cc2)C(F)C(F)(F)S3)cc1 (configuration not stated)
161 to 163	COc1ccc(C2=Cc3ccc(O)cc3OC2)cc1
159 to 161	CNc1ccc(N2C(=O)c3ccccc3C2=O)c(C)c1
156	CCOC(=O)C1=C(C)NC(N)=C(C(=O)OCC)C1c1ccccc1C(F)(F)F (configuration not stated)
128 to 132	CCCC12COC(c3ccc(I)cc3)(OC1)SC2
198 to 200	C(#Cc1ccccc1)C1=CCN(Cc2c[nH]c3ncccc23)CC1
142 to 144	Brc1ccc(C2CC(n3ccnc3)c3ccccc3N2)cc1 (configuration not stated)
150 to 152	CCn1cc(C(=O)O)c(=O)c2cc(F)c(N3CCN(C)C(c4cc[nH]c4)C3)cc21 (configuration not stated)
185 to 186	COc1cc(COc2ccc3nc(NC(=O)OCCN(C)C)cn3n2)cc(OC)c1OC
155	O=Cc1c(Br)nc(Sc2ccccc2)n1Cc1cc2c(cc1Cl)OCO2
100 to 101	CC(C)(C)OC(=O)Nc1c(F)cccc1[N+](=O)[O-]

melting point [°C]	Structure (SMILES)
175	CN1CCC(O)(c2cnc3ccccc3c2)CC1
150 to 152	NS(=O)(=O)c1ccc(C2=C(c3ccc(F)c(Cl)c3)CCC2)cc1
80 to 81	C/C(=C\c1ccc(CO)cc1)c1ccc2c(c1)C(C)(C)CCO2
196 to 197	CC(C)Cn1c(COc2ccccc2)nc2c(N)nc3ccccc3c21
99 to 101	OCC1OC(OCc2ccccc2)C(OCc2ccccc2)C(OCc2ccccc2)C1OCc1ccccc1 (configuration not stated)
179 to 180	CCOC(CC)c1ccc(Cl)c2nc3n(c12)CCCN3c1cnc(N(C)C)cc1C (configuration not stated)
110 to 112	CC1=NCCc2c1n(-c1ccccc1)c1ccccc21
175 to 176	CCOC(=O)C1=C(COC2CCNCC2)NC(C)=C(C(=O)OC)C1c1ccccc1Cl (configuration not stated)
151 to 153	CC1(Cn2nc(Cc3ccc(Cl)cc3)oc2=O)Cn2cc([N+](=O)[O-])nc2O1 (configuration not stated)
191 to 192	COc1ccc2c(c1)c(-c1ccccc1)cc(=O)n2Cc1c(Cl)cncc1Cl
110 to 114	Cc1nc(-c2sc(-c3ccc(Cl)cc3)nc2C)sc1C(=O)N[C@H](C)[C@](O)(Cn1cncn1)c1ccc(F)cc1F
82.7 to 83.4	Cc1ccc(C2=NCCc3c(Cl)cccc32)cc1
246 to 248	COc1ccc(-c2csc(Nc3ccc(C)cn3)n2)cc1
117 to 118	O=C1COC2(CCN(CCCC(=O)c3ccc(F)cc3)CC2)CN1
116 to 117	COC(=O)c1ccc2c(c1)COC(C(Cl)(Cl)Cl)N2 (configuration not stated)
205 to 211	COc1ccc(COCc2nc(C(C)C)c(Sc3cc(Cl)cc(Cl)c3)n2CC(=O)c2ccccc2)cc1
194 to 195	COc1cccc(CNc2ncnc3c2sc2nc(N4CCCC4)c4c(c23)CC(C)(C)CC4)c1OC
100 to 101	CN1CCN(c2cccc3ccc(-c4cccc(NS(C)(=O)=O)c4)cc23)CC1
288 to 290	O=C(O)c1cc2cc3[nH]c(=O)oc3cc2[nH]1
206 to 208	CC(C)(C)c1cc(CCc2ccccc2NC(=O)NC2CCC(C(C)(C)C)CC2)cc(C(C)(C)C)c1O (configuration not stated)
138 to 140	CCOC(=O)c1c(CBr)cccc1S(N)(=O)=O
